25 molecules from patent US8841309B2, “Substituted pyrazines and their use in the treatment of disease” (Boehringer Ingelheim International GmbH, priority 2012, dated 2014) can be followed below.

Where a name gives a salt, the structure may show the parent alone.

The assay addresses T1, ENaC (Mus musculus, UniProt Q61180+Q9WU38+Q9WU39).
T1 construct: Mouse kidney M-1 cells were cultivated in DMEM containing 5% FCS and 5 μM dexamethasone; endogenous in cells; host or cells: mouse kidney M-1 cells
T1 sequence (Q61180 1-699): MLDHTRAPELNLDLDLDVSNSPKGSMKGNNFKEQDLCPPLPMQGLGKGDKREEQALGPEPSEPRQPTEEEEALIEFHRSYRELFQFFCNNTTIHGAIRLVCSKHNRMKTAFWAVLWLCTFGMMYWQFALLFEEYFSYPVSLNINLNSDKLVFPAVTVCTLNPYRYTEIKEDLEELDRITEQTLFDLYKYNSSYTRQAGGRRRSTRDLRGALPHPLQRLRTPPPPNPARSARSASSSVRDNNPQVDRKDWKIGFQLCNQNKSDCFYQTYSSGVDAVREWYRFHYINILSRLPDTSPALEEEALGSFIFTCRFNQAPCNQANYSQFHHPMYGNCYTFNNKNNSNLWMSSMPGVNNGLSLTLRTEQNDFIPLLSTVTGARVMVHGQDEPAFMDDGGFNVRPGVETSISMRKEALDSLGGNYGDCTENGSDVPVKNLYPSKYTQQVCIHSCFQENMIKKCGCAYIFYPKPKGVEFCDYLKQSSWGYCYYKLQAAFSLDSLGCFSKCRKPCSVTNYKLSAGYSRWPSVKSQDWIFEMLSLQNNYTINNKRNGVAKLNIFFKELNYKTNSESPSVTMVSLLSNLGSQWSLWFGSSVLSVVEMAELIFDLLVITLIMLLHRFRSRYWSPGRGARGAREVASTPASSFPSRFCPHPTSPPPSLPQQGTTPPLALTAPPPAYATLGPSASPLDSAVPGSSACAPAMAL
T1 sequence (Q9WU38 1-638): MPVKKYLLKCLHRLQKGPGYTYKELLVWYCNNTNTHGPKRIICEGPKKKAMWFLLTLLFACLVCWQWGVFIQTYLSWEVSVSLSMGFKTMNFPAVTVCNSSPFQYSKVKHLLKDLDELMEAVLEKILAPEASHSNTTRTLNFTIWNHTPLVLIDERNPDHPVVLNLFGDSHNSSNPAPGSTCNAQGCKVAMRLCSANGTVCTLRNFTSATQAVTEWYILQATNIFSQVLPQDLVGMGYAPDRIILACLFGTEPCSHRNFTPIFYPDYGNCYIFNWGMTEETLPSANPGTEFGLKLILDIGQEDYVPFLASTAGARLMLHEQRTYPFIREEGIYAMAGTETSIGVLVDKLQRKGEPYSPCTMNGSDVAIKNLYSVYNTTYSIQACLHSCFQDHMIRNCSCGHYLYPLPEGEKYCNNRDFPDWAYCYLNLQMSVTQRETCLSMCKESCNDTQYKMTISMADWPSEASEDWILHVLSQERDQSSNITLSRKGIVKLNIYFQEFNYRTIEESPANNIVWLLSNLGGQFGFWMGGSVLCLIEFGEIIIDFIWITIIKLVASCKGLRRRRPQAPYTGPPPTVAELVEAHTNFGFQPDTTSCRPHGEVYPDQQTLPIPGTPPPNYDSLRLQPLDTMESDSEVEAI
T1 sequence (Q9WU39 1-655): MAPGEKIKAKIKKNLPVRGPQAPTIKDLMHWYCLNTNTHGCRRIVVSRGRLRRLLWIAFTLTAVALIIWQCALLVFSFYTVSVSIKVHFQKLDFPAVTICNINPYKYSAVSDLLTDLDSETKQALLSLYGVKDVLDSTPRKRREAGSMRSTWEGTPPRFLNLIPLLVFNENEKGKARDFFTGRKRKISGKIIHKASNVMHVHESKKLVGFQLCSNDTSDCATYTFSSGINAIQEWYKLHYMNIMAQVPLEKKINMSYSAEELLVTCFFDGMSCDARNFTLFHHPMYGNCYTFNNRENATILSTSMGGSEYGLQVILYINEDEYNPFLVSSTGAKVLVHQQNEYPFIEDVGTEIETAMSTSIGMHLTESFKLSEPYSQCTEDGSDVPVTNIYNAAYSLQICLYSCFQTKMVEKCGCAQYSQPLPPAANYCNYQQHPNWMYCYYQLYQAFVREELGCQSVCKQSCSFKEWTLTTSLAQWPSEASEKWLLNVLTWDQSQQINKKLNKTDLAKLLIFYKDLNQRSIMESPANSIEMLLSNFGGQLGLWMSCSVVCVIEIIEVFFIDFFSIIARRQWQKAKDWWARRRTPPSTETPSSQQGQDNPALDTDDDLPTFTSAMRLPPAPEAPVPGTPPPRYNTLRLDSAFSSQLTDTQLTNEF
The assay can be described thus: Ussing chamber: short circuit current (I_sc) in mouse kidney M-1 cells, amiloride-sensitive. The assay is classed as cell-based. The conditions noted are these: compound applied to apical solution, 37° C. The method, then: Ussing Chamber: Mouse kidney M-1 cells were cultivated in DMEM containing 5% FCS and 5 μM dexamethasone for 10 to 12 days on polyester transwell filters. Filters were inserted into a teflon-coated well-plate which fit into the in-house ussing chamber system. Prior to measurement the medium of M-1 cells was replaced with Caco-2 transport buffer (Invitrogen, Germany). During measurements, the Ussing chamber temperature was kept at 37° C. Short circuit currents (I_sc) were measured in the voltage-clamp mode using an in-house built amplifier (Boehringer Ingelheim, Biberach) with the software package Lab View for data acquisition and analysis. The transepithelial electrical resistance (TEER) was determined by the application of voltage steps of ±5 mV every 5 sec. Compounds were administered at a final concentration of 3 μM or at increasing concentrations (1-3-10 μM) to the apical solution. At the end of each experiment the amiloride sensitive I_SC was measured by adding 3 μM amiloride to the apical compartment. Results are expressed as inhibition in percent of the amiloride effect or as IC50.
In turn, `COC(=O)c1ccc(CCNC(=O)C[N+]23CCC(CC2)[C@H](NC(N)=NC(=O)c2nc(Cl)c(N)nc2N)C3)cc1` [Example 61] returned an IC50 of 0.002 µM. This lies in the single-digit nanomolar range.

Consider `NC(=NC(=O)c1nc(Cl)c(N)nc1N)N[C@@H]1C[N+]2(CC(=O)N3CCN(c4ccccn4)CC3)CCC1CC2` [Example 62], for which the IC50 was 0.02 µM.

`N#Cc1ccc(CNC(=O)C[N+]23CCC(CC2)[C@H](NC(N)=NC(=O)c2nc(Cl)c(N)nc2N)C3)cc1` [Example 63] came in with an IC50 of 0.03 µM.

As to `CCOC(=O)N1CCC(NC(=O)C[N+]23CCC(CC2)[C@H](NC(N)=NC(=O)c2nc(Cl)c(N)nc2N)C3)CC1` [Example 64], the half-inhibitory concentration (IC50) came out at 0.076 µM. Against the preceding molecule, the IC50 is about 2.5-fold higher.

With `CN(CCc1ccccc1)C(=O)C[N+]12CCC(CC1)[C@H](NC(N)=NC(=O)c1nc(Cl)c(N)nc1N)C2` [Example 65], the half-maximal inhibitory concentration (IC50) turned out to be 0.002 µM.

On to `NC(=NC(=O)c1nc(Cl)c(N)nc1N)N[C@@H]1C[N+]2(CC(=O)N3CCN(c4ncccn4)CC3)CCC1CC2` [Example 66], for which the IC50 turned out to be 0.022 µM.

`CC(C)(C)OC(=O)C1CCN(C(=O)C[N+]23CCC(CC2)[C@H](NC(N)=NC(=O)c2nc(Cl)c(N)nc2N)C3)CC1` [Example 67, (S)-1-[2-(4-tert-butoxycarbonyl-piperidin-1-yl)-2-oxo-ethyl]-3-[N′-(3,5-diamino-6-chloro-pyrazine-2-carbonyl)-guanidino]-1-azonia-bicyclo[2.2.2]octane; chloride] came in with a half-maximal inhibitory concentration (IC50) of 0.04 µM.

With `CCNC(=O)C(c1ccccc1)[N+]12CCC(CC1)[C@H](NC(=N)NC(=O)c1nc(Cl)c(N)nc1N)C2` (stereo partly drawn) [Example 68.1, (S)-3-[N′-(3,5-Diamino-6-chloro-pyrazine-2-carbonyl)-guanidino]-1-(ethylcarbamoyl-phenyl-methyl)-1-azonia-bicyclo[2.2.2]octane bromide], the IC50 is 0.018 µM.

Consider `CC(C)=CC[N+]12CCC(CC1)[C@H](N/C(N)=N/C(=O)c1nc(Cl)c(N)nc1N)C2` [Example 69, (S)-3-[N′-(3,5-Diamino-6-chloro-pyrazine-2-carbonyl)-guanidino]-1-(3-methyl-but-2-enyl)-1-azoniabicyclo[2.2.2]octane chloride], for which inhibition was half-maximal at 0.188 µM (IC50).

As for `C[N+]1(Cc2ccccc2)CCC(N/C(N)=N/C(=O)c2nc(Cl)c(N)nc2N)CC1` (stereo not shown) [Example 70, 1-Benzyl-4-[N′-(3,5-diamino-6-chloro-pyrazine-2-carbonyl)-guanidino]-1-methyl-piperidinium chloride], the 50% inhibitory concentration (IC50) was found to be 0.106 µM.

Molecule `COC(=O)c1ccc(C[N+]2(C)CCC(NC(N)=NC(=O)c3nc(Cl)c(N)nc3N)CC2)cc1` (stereo not shown) [Example 70.1] showed a half-inhibitory concentration (IC50) of 0.064 µM.

With `CC[N+]1(Cc2ccccc2)CCC(NC(N)=NC(=O)c2nc(Cl)c(N)nc2N)CC1` (stereo not shown) [Example 70.2], the IC50 was 0.052 µM.

For the molecule `CCNC(=O)C[N+]1(C)CCC[C@@H](NC(N)=NC(=O)c2nc(Cl)c(N)nc2N)C1` (stereo partly shown) [Example 70.3], the IC50 stood at 0.26 µM.

Regarding `CC[N+]1(CC(=O)Nc2cccc(F)c2)CCC(NC(N)=NC(=O)c2nc(Cl)c(N)nc2N)CC1` (stereo not shown) [Example 70.7], half-maximal inhibition (IC50) required 0.031 µM.

In turn, `C[N+]1(Cc2ccccc2)CC[C@H](NC(N)=NC(=O)c2nc(Cl)c(N)nc2N)C1` (stereo partly shown) [Example 71.2] had an IC50 of 0.113 µM.

As for `CN(C(=O)C[N+]1(C)CCC(NC(N)=NC(=O)c2nc(Cl)c(N)nc2N)CC1)c1ccccc1` (stereo not shown) [Example 72.1], the IC50 is 0.137 µM.

Regarding `CN(Cc1ccccc1)C(=O)C[N+]1(C)CCC(NC(N)=NC(=O)c2nc(Cl)c(N)nc2N)CC1` (stereo not shown) [Example 72.2], the IC50 came out at 0.076 µM.

`COC(=O)c1ccccc1NC(=O)C[N+]1(C)CCC(NC(N)=NC(=O)c2nc(Cl)c(N)nc2N)CC1` (stereo not shown) [Example 72.3] displayed a half-inhibitory concentration (IC50) of 0.022 µM.

In turn, `N=C(NC(=O)c1nc(Cl)c(N)nc1N)N[C@@H]1C[N+]2(CC(=O)N[C@@H](Cc3ccccc3)C(=O)O)CCC1CC2` [Example 73, (S)-1-[((S)-1-Carboxy-2-phenyl-ethylcarbamoyl)-methyl]-3-[N′-(3,5-diamino-6-chloro-pyrazine-2-carbonyl)-guanidino]-1-azonia-bicyclo[2.2.2]octane chloride hydrochloride] registered an IC50 of 0.004 µM.

For `N=C(NC(=O)c1nc(Cl)c(N)nc1N)N[C@@H]1C[N+]2(CC(=O)N[C@H](Cc3ccccc3)C(=O)O)CCC1CC2` [Example 73.1, (S)-1-[((R)-1-Carboxy-2-phenyl-ethylcarbamoyl)-methyl]-3-[N′-(3,5-diamino-6-chloro-pyrazine-2-carbonyl)-guanidino]-1-azonia-bicyclo[2.2.2]octane; chloride hydrochloride], the IC50 came to 0.197 µM.

Molecule `N=C(NC(=O)c1nc(Cl)c(N)nc1N)N[C@@H]1C[N+]2(CC(=O)N3CCC(C(=O)O)CC3)CCC1CC2` [Example 73.2, (S)-1-[2-(4-Carboxy-piperidin-1-yl)-2-oxo-ethyl]-3-[N′-(3,5-diamino-6-chloro-pyrazine-2-carbonyl)-guanidino]-1-azonia-bicyclo[2.2.2]octane chloride hydrochloride] showed a concentration for half-maximal inhibition (IC50) of 0.269 µM.

Regarding `NC(=NC(=O)c1nc(Cl)c(N)nc1N)N[C@@H]1C[N+]2(CC(=O)NCC3(c4ccccc4)CCOCC3)CCC1CC2` [Example 74], half-maximal inhibition (IC50) required 0.015 µM.

For `NC(=NC(=O)c1nc(Cl)c(N)nc1N)NC1C[N+]2(CC(=O)NC3CCC(c4ccccc4)CC3)CCC1CC2` (stereo not shown) [Example 75], the midpoint of inhibition, the IC50, lay at 0.022 µM.

Molecule `NC(=NC(=O)c1nc(Cl)c(N)nc1N)N[C@@H]1C[N+]2(CC(=O)NCC3CCOCC3)CCC1CC2` [Example 76] gave a concentration for half-maximal inhibition (IC50) of 0.039 µM.

Molecule `CCOC(=O)c1cccc(CCNC(=O)C[N+]23CCC(CC2)[C@H](NC(N)=NC(=O)c2nc(Cl)c(N)nc2N)C3)c1` [Example 77] displayed an IC50 of 0.043 µM.
